Laboratory results from ChEMBL document CHEMBL5316353, “Antitarget, Anti-SARS-CoV-2 Leads, Drugs, and the Drug Discovery-Genetics Alliance Perspective” (J Med Chem, 2023).

System: SARS-CoV-2
Test: Antiviral activity against SARS Cov-2 pseudovirions assessed as inhibition of viral entry into 293/hACE2 cells at 2 uM relative to control
Type: functional, Severe acute respiratory syndrome coronavirus 2, 293T/ACE2
Design: scale not given: the % may be the effect or the level left

CCc1ccccc1NC(=O)CSC(=O)NNC(=O)[C@H](Cc1c[nH]c2ccccc12)NC(=O)OC(C)(C)C showed an Activity of roughly 76%.
